The values that follow come from patent US9095567B2, “Vaccine formulations” (priority 2010, dated 2015).

Holding throughout (experiment): Preservative effectiveness test, single challenge
Assay type in all cases: cell-based

Assay [1] has as its system Aspergillus niger (ATCC #16404). The conditions noted are these: Prev(e)nar 13 formulation, single challenge, 20 to 25° C. The source says: (§1) To test for preservative effectiveness, aliquots of vaccine were inoculated with the following organisms:
(§2) Thirty milliliters (ml) of each vaccine formulation with and without Thimerosal or 2-PE at indicated concentrations or saline containing Thimerosal at 0.02% were inoculated in triplicates with a suspension of each test organism to achieve an inoculum density of approximately 10^5 to 10^6 CFU/ml at time 0 (CFU=colony forming units). […] Samples were mixed to ensure even distribution of challenged organisms. Another 30 ml of vaccine in triplicate (with and without preservative) were used as a negative control and spiked with the culture media alone to evaluate the inherent contamination that might be present in the sample or media. Each of the three series of vaccines, and positive and negative controls, was then separately incubated at 20 to 25° C. Aliquots (1 ml) of the challenged samples and controls (or their appropriate serial ten fold dilutions) were enumerated by plate count in duplicates at time 0 and at intervals of 6 hours, 24 hours, 7 days, 14 days and 28 days post-inoculation.
(§3) USP 29 NF 24 Supplement 2 (USP) requires that, after an inoculation of bacterial micro-organism(s), there is at least 1.0 log reduction from the initial calculated count (i.e., at time of inoculation) at 7 days, at least 3.0 log reduction at 14 days from the previous value measured and no increase at 28 days from the previous measured value. For yeast and fungi, the USP requirement is for there to be no increase from the time of inoculation to 7, 14 and 28 days.
(§4) EP requirements are more stringent. EP 5th Edition 5.6 (5.1.3) requirements for parenteral and ophthalmic preparations has two components: Category A and Category B. Category A (EP-A) requires, for bacteria, at least 2.0 log reduction from the initial calculated count at 6 hours after inoculation, at least 3.0 log reduction at 24 hours from the previous measured value, and no recovery at 28 days. Category B (EP-B) requires, for bacteria, at least 1.0 log reduction at 24 hours from the initial calculated count, at least 3.0 log reduction at 7 days from the previous value measured and not more than 0.5 log increase at 28 days from the previous value measured (i.e., no increase). For yeast and fungi, Category A requires at least 2.0 log reduction at 7 days and no increase from the previous value measured at 28 days, and Category B requires at least 1.0 log reduction at 14 days and no increase from the previous value measured at 28 days.
(§5) Plates containing <300 CFU for bacteria or <100 CFU for yeast or mold were used during enumeration. For single challenge studies, arithmetic average count of all surviving micro-organisms in triplicate and on duplicate plates (6 values per time point) plus their diluted samples were measured and normalized as CFU/ml. The results are expressed as mean log10 CFU/ml reduction (compared to time 0). In this case, the count of surviving micro-organisms is evaluated at time 0 as the baseline and compared to incubation time of 6 hours, 24 hours, 7 days, 14 days and 28 days.

Assay [2] concerns Candida albicans (ATCC#10231). The conditions noted are these: Prev(e)nar 13 formulation, single challenge, 20 to 25° C.
Text: as §1, §2, §3, §4, §5

The subject of another assay is E. coli. To be noted: Prev(e)nar 13 formulation, 20 to 25° C.
Text: as §1, §2, §3, §4, §5

For assay [3], the system named is Pseudomonas aeruginosa (ATCC #9027). To be noted: Prev(e)nar 13 formulation, 20 to 25° C.
Text: as §1, §2, §3, §4, §5

In assay [4] the test system is Staphylococcus aureus (ATCC #6538). To be noted: Prev(e)nar 13 formulation, single challenge, 20 to 25° C.
Text: as §1, §2, §3, §4, §5

Molecules are shown by their SMILES.

On to `Cc1cccc(O)c1` [0.3% m cresol, Meta-Cresol], for which, in assay [1], the “EP (EP-B) vaccine safety requirements, A. niger” value was “Meets” and the “USP vaccine safety requirements, A. niger” value was “Meets”. Besides, in assay [2], the “EP (EP-B) vaccine safety requirements, C. albicans” value is reported as “Meets” and the “USP vaccine safety requirements, C. albicans” value was “Meets”. Moreover, in the assay with E. coli, the “EP (EP-B) vaccine safety requirements, E. coli” value was “Fails” and the “USP vaccine safety requirements, E. coli” value is “Meets”. In assay [3], the “EP (EP-B) vaccine safety requirements, P. aeruginosa” value is on record as “Fails” and the “USP vaccine safety requirements, P. aeruginosa” value is “Meets”. Also, in assay [4], the “EP (EP-B) vaccine safety requirements, S aureus” value was “Fails” and the “USP vaccine safety requirements, S aureus” value was “Meets”.
Regarding `Oc1ccccc1` [0.25% phenol, Phenol], in assay [1], the “EP (EP-B) vaccine safety requirements, A. niger” value is “Meets” and the “USP vaccine safety requirements, A. niger” value is reported as “Meets”. For the same compound, in assay [2], the “EP (EP-B) vaccine safety requirements, C. albicans” value is recorded as “Meets” and the “USP vaccine safety requirements, C. albicans” value is given as “Meets”. In addition, in the assay with E. coli, the “EP (EP-B) vaccine safety requirements, E. coli” value is “Fails” and the “USP vaccine safety requirements, E. coli” value is listed as “Meets”. For the same compound, in assay [3], the “EP (EP-B) vaccine safety requirements, P. aeruginosa” value is “Fails” and the “USP vaccine safety requirements, P. aeruginosa” value is on record as “Meets”. Moreover, in assay [4], the “EP (EP-B) vaccine safety requirements, S aureus” value is recorded as “Fails” and the “USP vaccine safety requirements, S aureus” value is on record as “Meets”.
